The source of these data is US20260055106A1, “PARG INHIBITORY COMPOUND” (FORX THERAPEUTICS AG, priority 2021, published 2026).

Data set [1] relates to NCI-H460. Put plainly: Cellular viability assay (NCI-H460). The class given is cell-based. Conditions: 96 hours incubation, Cell Titer-Glo, read-out: EC50 determined in NCIH-460 cells, Cellular viability assay. The procedure:
(§1) NCI-H460 and MDA-MB-436 as PARG-inhibition sensitive cell lines, and U2OS as PARG-inhibition insensitive cell line, were plated at 1000 cells/well, 5000 cells/well and 2000 cells/well, respectively, in 96-well white plates with clear flat bottom. After 24 hours, the compounds were added with the Tecan digital dispenser (D300e), in duplicates. The outer wells of the plate were excluded. After 96 hours of incubation, 150 μl of the growth medium were removed and 50 μl of Cell Titer-Glo (Promega) were added per well. Following an incubation of 10 minutes, luminescence was read using a plate reader (Tecan) for NCI-H460 and U2OS cell lines, and a 2104 EnVision plate reader for MDA-MB-436. Averaged values of the samples were normalized to DMSO treated control samples. Curves were fit as % of the control vs. log of the compound concentration using a 4 parameter log-logistic function: […]

The test system of data set [2] is U2OS. Put plainly: Cellular viability assay (U2OS). The class given is cell-based. Particulars: Homo sapiens, 96 hours incubation, Cell Titer-Glo, read-out: EC50 determined in U2OS cells, Cellular viability assay. The procedure:
as §1

The target of data set [3] is T1, human PARG (Homo sapiens, UniProt Q86W56, A967T/C963S/D927K/H446G/I916T/L447S/L473S/M841I/N479S/R811K/S802A/S858P/T924D).
T1 construct: human PARG (448-976 [H446G, L447S, L473S, N479S, S802A, R811K, M8411, S858P, 1916T, T924D, D927K, C963S, A967T]); 6His-TwinStrep (protease-cleavable) (N, cleaved yes); host or cells: E. coli BL21 (DE3)
Put plainly: PARG enzymatic IC50 assay. The format is biochemical. Conditions: 2 hours incubation with enzyme; substrate ADP-ribose-pNP; absorbance 405 nm; read-out: IC50 determined in PARG enzymatic assay (PARG protein and 2 hours incubation). As to the method: A codon optimized gene encoding human PARG (448-976 [H446G, L447S, L473S, N479S, S802A, R811K, M8411, S858P, 1916T, T924D, D927K, C963S, A967T]) was synthesized by Genscript, and cloned into pET15b (NcoI/BamHI) with an N-terminal, Thrombin protease cleavable 6His-TwinStrep tag. Expression of the protein in E. coli BL21 (DE3) was induced by addition of 0.2 mM IPTG to a shake flask culture grown to OD600=0.8 at 37° C. Growth was allowed to continue at 30° C. for a further 20 hours before harvesting by centrifugation and storage of the cell pellet at −80° C. […]
PARG enzyme as incubated with compound or vehicle (DMSO) for 15 minutes or 2 hours in a 384 well plate. After adding the PARG substrate ADP-ribose-pNP, the plate was read for absorbance intensity at 405 nm. The vehicle (DMSO) with high absorbance intensity represents no inhibition of enzymatic reaction while the low control (no enzyme) with low absorbance intensity represents full inhibition of enzymatic reaction. […]
The protocol that was used for enzyme reaction and detection is as follows: • 1. […] Read the plate on a plate reader (e.g., Spark Tecan).

For data set [4], the target named is T2, PARG (Homo sapiens, UniProt Q86W56).
T2 construct: endogenous in cells; host or cells: U2OS
Description: Cellular PAR chain assay. The class given is cell-based. Conditions: U2OS cells. As to the method:
The ability of compounds to inhibit PARG in response to DNA damage, was assessed with U2OS cells pretreated with the compounds for 1 hour, following a 1-hour treatment with or without the DNA alkylating agent temozolomide (TMZ). […] The cells were incubated for 2 hours at room temperature with a mouse monoclonal antibody against poly (ADP) ribose (PAR) polymer. The cells were washed and incubated with an anti-mouse Alexa-488 conjugated secondary antibody for 1 hour at room temperature. Propidium iodide staining was used to determine DNA content in the cells (staining at 4° C. overnight). The fluorescence intensity of the cells was assessed by flow cytometry (Cytoflex from Beckmann) and the percentage of PAR chain positive cells (gated in relation to TMZ+DMSO treated control) was determined. PAR chain positive cells % were fit against the concentration of the compound using a 4 parameter log-logistic function, generating PAR chain EC50 values: […]

The subject of data set [5] is MDA-MB-436. Description: Cellular viability assay (MDA-MB-436). The format is cell-based. Conditions: Homo sapiens, 96 hours incubation, Cell Titer-Glo, read-out: EC50 determined in MDA-MB-436 cells, Cellular viability assay. As to the method:
as §1

Data set [6] in a line: Kinetic solubility assay. The format is physicochemical. Particulars: buffer, aqueous buffer, kinetic from dmso stock, pH 7.4, shake flask, room temperature, HPLC-UV. The procedure: The Kinetic solubility assay employs the shake flask method followed by HPLC-UV analysis. For exemplary compounds, the kinetic solubility was measured according to the following protocol: • 1. Samples were weighed and dissolved in 100% DMSO to make a stock solution of 10 mM. About 100 μL of stock solution is needed to cover this assay. • 2. Test compounds and controls (10 mM in DMSO, 10 μL/tube) were added into the buffer (490 μL/well) which were placed in a Mini-UniPrep filter. The buffer was prepared as the customer's requirement. • 3. The kinetic solubility samples were vortexed for 2 minutes. • 4. The solubility solutions were shaked in an orbital shaker for 24 hr at room temperature. • 5. 200 μL of each solubility solution were transferd into a 96-deep well for analysis when the samples were directly filtered by the syringeless filter device. • 6. The test compound concentration of the filtrate were determined using HPLC-UV. • 7. Three UV standard solutions were injected into HPLC from low to high concentrations, followed by testing of the K.S. supernatant. Testing samples were injected in duplicate.

For data set [7], the system named is MDA-MB-436 tumor cells. Put plainly: Cell-derived xenograft (CDX) study, MDA-MB-436 xenograft model. The class given is in vivo, Mus musculus. Particulars: BALB/c nude mice. The procedure: • Species: Mus musculus • Strain: BALB/c nude • Age: 6-9 weeks • Sex: Female • Body weight: 17-20 g • Animal supplier: Beijing Vital River Laboratory Animal Technology Co., Ltd • Certificate No: 20230209Abzz0619000498
The MDA-MB-436 tumor cells (ATCC, cat #HTB-130) were maintained in vitro as a monolayer culture in L-15 medium supplemented with 10% fetal bovine serum, 10 μg/mL Insulin, 16 μg/mL glutathione and 1% Antibiotic-Antimycotic at 37° C. in an atmosphere of 0% CO2 in air. The cells growing in an exponential growth phase were harvested and counted for tumor inoculation.
BALB/c nude female mice were inoculated subcutaneously at the right flank with MDA-MB-436 tumor cells (10×10^6/mouse) in 0.2 mL of PBS with Matrigel (1:1) for tumor development. The animals were randomized and the treatment was started on day 25 after tumor inoculation when the average tumor volume reached approximately 126 mm^3. Each group consisted of 10 tumor-bearing mice. The compound of formula (I) was administrated to the mice according to the predetermined regimen as shown in the experimental design table 3
Tumor sizes were measured twice weekly in two dimensions using a caliper, and the volumes were expressed in mm^3. The tumor sizes were then used for the calculations of TGI values.
TGI was calculated for each group using the formula: TGI (%)=[1−(Ti−T0)/(Vi−V0)]×100; Ti is the average tumor volume of a treatment group on a given day, T0 is the average tumor volume of the treatment group on the first day of treatment, Vi is the average tumor volume of the vehicle control group on the same day with Ti, and V0 is the average tumor volume of the vehicle group on the first day of treatment.
A one-way ANOVA was performed to compare the tumor volume among groups.

Where a name gives a salt, the structure may show the parent alone. Read-outs that look alike come from different tables or passages of the source.

As a reminder, the EC50 is the concentration needed to bring the measured effect to its halfway point. For orientation: IC50 means the concentration that gives 50% inhibition. The term kinetic solubility denotes the concentration staying in solution when a stock, usually in DMSO, is diluted into the medium.

T2 sequence (Q86W56 whole entry): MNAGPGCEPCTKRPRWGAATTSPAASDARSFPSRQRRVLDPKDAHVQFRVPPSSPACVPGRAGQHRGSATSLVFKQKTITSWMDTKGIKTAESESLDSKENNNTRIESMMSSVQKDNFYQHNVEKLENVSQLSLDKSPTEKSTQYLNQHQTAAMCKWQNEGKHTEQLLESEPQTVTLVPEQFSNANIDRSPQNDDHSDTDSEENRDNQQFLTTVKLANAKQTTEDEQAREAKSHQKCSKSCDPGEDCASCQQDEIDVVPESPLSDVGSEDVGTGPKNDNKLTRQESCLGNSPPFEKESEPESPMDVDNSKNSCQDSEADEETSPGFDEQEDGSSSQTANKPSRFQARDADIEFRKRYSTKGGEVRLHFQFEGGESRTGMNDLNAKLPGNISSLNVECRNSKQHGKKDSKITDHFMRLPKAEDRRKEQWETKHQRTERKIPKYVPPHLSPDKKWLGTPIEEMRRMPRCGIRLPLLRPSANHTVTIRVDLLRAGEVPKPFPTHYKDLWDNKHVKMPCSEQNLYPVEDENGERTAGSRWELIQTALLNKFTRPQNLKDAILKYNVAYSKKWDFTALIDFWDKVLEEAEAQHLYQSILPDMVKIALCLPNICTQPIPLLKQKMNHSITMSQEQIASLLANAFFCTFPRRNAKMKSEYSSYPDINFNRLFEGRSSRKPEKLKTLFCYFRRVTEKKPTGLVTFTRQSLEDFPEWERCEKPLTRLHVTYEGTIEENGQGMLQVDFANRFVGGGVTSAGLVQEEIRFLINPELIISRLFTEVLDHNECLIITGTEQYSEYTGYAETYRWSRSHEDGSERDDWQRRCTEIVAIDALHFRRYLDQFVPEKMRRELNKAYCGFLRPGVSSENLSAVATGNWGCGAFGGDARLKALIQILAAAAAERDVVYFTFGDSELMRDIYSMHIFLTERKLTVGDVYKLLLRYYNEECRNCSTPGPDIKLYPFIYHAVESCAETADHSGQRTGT
T1 sequence (Q86W56 446-976 H446G/L447S/L473S/N479S/S802A/R811K/M841I/S858P/I916T/T924D/D927K/C963S/A967T): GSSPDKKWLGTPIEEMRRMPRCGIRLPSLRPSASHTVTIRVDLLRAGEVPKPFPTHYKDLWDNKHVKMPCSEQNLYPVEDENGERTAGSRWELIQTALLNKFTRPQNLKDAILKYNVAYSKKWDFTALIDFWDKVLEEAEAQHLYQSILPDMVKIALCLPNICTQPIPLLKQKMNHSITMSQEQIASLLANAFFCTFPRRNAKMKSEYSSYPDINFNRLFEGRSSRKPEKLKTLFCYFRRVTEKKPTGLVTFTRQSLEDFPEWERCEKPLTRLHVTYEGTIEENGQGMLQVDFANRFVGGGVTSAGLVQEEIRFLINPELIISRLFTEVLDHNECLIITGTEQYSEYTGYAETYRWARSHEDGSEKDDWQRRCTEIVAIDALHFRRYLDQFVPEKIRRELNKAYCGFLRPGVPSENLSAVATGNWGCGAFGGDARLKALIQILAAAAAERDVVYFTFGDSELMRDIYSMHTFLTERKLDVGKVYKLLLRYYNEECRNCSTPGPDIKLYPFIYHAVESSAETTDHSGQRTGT

Consider `C[C@H]1CN(c2cc(S(=O)(=O)NC3(C)CC3)cn3c(-c4nnc(C(F)F)s4)ncc23)C[C@H](C)N1` (single isomer, unassigned) [Example 1b], for which the EC50 in data set [1] (listed as 1b fraction B) is 22 nM; in data set [1] (Homo sapiens, NCI-H460, 96 h) it was 21 nM; in data set [2], above 2000 nM.

On to `C[C@H]1CN(c2cc(S(=O)(=O)NC3(C)CC3)cn3c(-c4nnc(C(F)F)s4)ncc23)C[C@H](C)N1` [Example 1, 3-(5-(difluoromethyl)-1,3,4-thiadiazol-2-yl)-8-((3S,5S)-3,5-dimethylpiperazin-1-yl)-N-(1-methylcyclopropyl)imidazo[1,5-a]pyridine-6-sulfonamide formate], for which the IC50 in data set [3] was 11 nM. The concentration for a half-maximal effect (EC50) in data set [4] (with treatment of TMZ, read-out: EC50 determined in Cellular PAR chain assay (conditions with treatment of TMZ)) was below 3 nM; in data set [4] (without treatment of TMZ, read-out: EC50 determined in Cellular PAR chain assay (conditions without treatment of TMZ)), below 3 nM; in data set [1] (Homo sapiens, NCI-H460, 96 h) it was below 19 nM; in data set [2] it was 11900 nM; in data set [5], 17 nM. The kinetic solubility at 24 h in data set [6] stood at 152 µM. Moreover, the “Tumor volume on day 28” value in data set [7] (100 mg/kg PO QD x 28 days, Mean ± SEM) turned out to be 27 ± 9 mm^3. Also, the TGI in data set [7] (100 mg/kg PO QD x 28 days, day 28) was found to be 118.20%. In data set [7] (100 mg/kg, MDA-MB-436 xenograft), the anti-tumor response entry is given as “tumor regression seen in all mice”.
